The test system of data set [1] is human ovarian cancer cell lines. The experiment in a line: Cytotoxicity, NCI disease-oriented antitumor screening, ovarian cancer cell lines. Particulars: range of GI50's for the ovarian cancer cell lines, read-out: Cytotoxic activity (GI50), ovarian. The data set is classed as cell-based. The source says: (§1) Compounds were subjected to the disease-oriented antitumor screening on 60 cancer cell lines in the National Cancer Institute of the U.S.A. (Grever, M. R. et al., Seminars in Oncology 1992, 19, 622~638). Results of cytotoxicity are summarized in Table 1, GI50 values represent the concentrations corresponding to 50% of growth inhibition.

In data set [2] the test system is human breast cancer cell lines. The experiment in a line: Cytotoxicity, NCI disease-oriented antitumor screening, breast cancer cell lines. The data set is classed as cell-based. Conditions: range of GI50's for the breast cancer cell lines, read-out: Cytotoxic activity (GI50), breast.
From the text: as §1

The subject of data set [3] is human lung cancer cell lines. The experiment in a line: Cytotoxicity, NCI disease-oriented antitumor screening, lung cancer cell lines. The data set is classed as cell-based. Particulars: range of GI50's for the lung cancer cell lines, read-out: Cytotoxic activity (GI50), lung.
From the text: as §1

Data set [4] concerns human prostate cancer cell lines. The experiment in a line: Cytotoxicity, NCI disease-oriented antitumor screening, prostate cancer cell lines. The data set is classed as cell-based. Conditions: range of GI50's for the prostate cancer cell lines, read-out: Cytotoxic activity (GI50), prostate.
From the text: as §1

In data set [5] the test system is human renal cancer cell lines. The experiment in a line: Cytotoxicity, NCI disease-oriented antitumor screening, renal cancer cell lines. The data set is classed as cell-based. Conditions: range of GI50's for the renal cancer cell lines, read-out: Cytotoxic activity (GI50), renal.
From the text: as §1

Another data set concerns CNS SNB75 cell line. The experiment in a line: Cytotoxicity, NCI disease-oriented antitumor screening, CNS SNB75 cell line. The data set is classed as cell-based. Particulars: Homo sapiens, SNB-75.
From the text: as §1

Data set [6] relates to human CNS tumor cell lines. Nature of the data set: Cytotoxicity, NCI disease-oriented antitumor screening, CNS tumor cell lines. The data set is classed as cell-based. Particulars: for selective cytotoxicity on human CNS tumor cell lines: in words.
From the text: as §1

In data set [7] the test system is human colon cancer cell lines. The experiment in a line: Cytotoxicity, NCI disease-oriented antitumor screening, colon cancer cell lines. The format is cell-based. Particulars: range of GI50's for the colon cancer cell lines, read-out: Cytotoxic activity (GI50), colon.
From the text: as §1

For another data set, the system named is CNS U251 cell line. Nature of the data set: Cytotoxicity, NCI disease-oriented antitumor screening, CNS U251 cell line. The data set is classed as cell-based. Conditions: Homo sapiens, U-251, read-out: Cytotoxic activity (GI50), CNS.
From the text: as §1

Data set [8] relates to glycinamide ribonucleotide transformylase (GAR-Tfase). Particulars: in words; Baldwin et al, 1991; cited from earlier work.
Setting [9] is: CNS SNB75 cell line, read-out: Cytotoxic activity (GI50), CNS.
Where [10] appears, read: SNB75 CNS cell line, read-out: GI50.

The values below come from patent publication US5670508A, “2-amino-6-alkyl-5-(4-substituted-1-piperazinyl) pyrimidin-4-ones, the preparation and use thereof” (National Science Council, priority 1995, dated 1997).

Read-outs that look alike come from different tables or passages of the source. Bounds are passed on as bounds.

In general, GI50 refers to the concentration that inhibits growth by half.

Regarding `Cc1nc(N)[nH]c(=O)c1N1CCN(c2ccc(C#N)cc2)CC1` [Compound 6, 4-[4-(2-Amino-6-methyl-4(3H)-oxopyrimidin-5-yl)piperazin-1-yl]benzonitrile], the GI50 in data set [1] was 93 µM; in data set [2] it was greater than 100 µM; in data set [3], greater than 100 µM; in data set [4], greater than 100 µM; in data set [5], greater than 100 µM; in the data set on CNS SNB75 cell line (setting [9]), 0.04 µM. The GI50 in data set [7] is greater than 100 µM. The “selective cytotoxicity on human CNS tumor cell lines” value in data set [6] is “selective cytotoxicity”.

In the case of `Cc1nc(N)[nH]c(=O)c1N1CCN(c2ccc(C(=O)O)cc2)CC1` [Compound 7, 4-[4-(2-Amino-6-methyl-4(3H)-oxopyrimidin-5-yl)piperazin-1-yl]benzoic acid], the GI50 in data set [1] is greater than 100 µM; in data set [2], greater than 100 µM; in [3], greater than 100 µM; in data set [4] it was greater than 100 µM; in [5] it was 1.39 µM; in data set [6] (Homo sapiens, CNS cell lines, no single line specified, read-out: Cytotoxic activity (GI50), CNS), greater than 100 µM. For the same compound, the concentration for 50% growth inhibition (GI50) in [7] is greater than 100 µM.

For the compound `CCOC(=O)CCC(NC(=O)c1ccc(N2CCN(c3c(C)nc(N)[nH]c3=O)CC2)cc1)C(=O)OCC` (stereo not shown) [Compound 8, Diethyl N-[4-[4-(2-Amino-6-methyl-4(3H)-oxopyrimidin-5-yl)piperazin-1-yl]benzoyl]glutamic acid], the GI50 is greater than 100 µM in data set [1]; greater than 100 µM in [2]; greater than 100 µM in [3]; greater than 100 µM in data set [4]; greater than 100 µM in data set [5]; less than 0.01 µM with CNS SNB75 cell line (setting [9]). Also, the GI50 is less than 0.01 µM with CNS SNB75 cell line (setting [10]) and greater than 100 µM in data set [7]. For the same compound, the “selective cytotoxicity on human CNS tumor cell lines” value in data set [6] is “selective cytotoxicity”.

Take `Cc1nc(N)[nH]c(=O)c1N1CCN(c2ccc(C(=O)NC(CCC(=O)O)C(=O)O)cc2)CC1` (stereo not shown) [Compound 9, N-[4-[4-(2-Amino-6-methyl-4-(3H)-oxopyrimidin-5-yl)piperazin-1-yl]benzoyl]glutamic acid]: the GI50 was greater than 100 µM in data set [1]; greater than 100 µM in [2]; greater than 100 µM in [3]; greater than 100 µM in data set [4]; greater than 100 µM in data set [5]; less than 0.01 µM with CNS SNB75 cell line (setting [9]). Also, the values for the GI50 (in the data set with CNS SNB75 cell line (setting [10]); in data set [7]) were less than 0.01 µM and greater than 100 µM, respectively. Also, in data set [6], the “selective cytotoxicity on human CNS tumor cell lines” value is “selective cytotoxicity”.

As to `Cc1nc(N)[nH]c(=O)c1N1CCN(c2ccc([N+](=O)[O-])cc2)CC1` [Compound 10, 2-Amino-6-methyl-5-[4-(4-nitrophenyl)piperazin-1-yl]pyrimidin-4(3H)-one], the GI50 is greater than 100 µM in data set [1]; greater than 100 µM in data set [2]; greater than 100 µM in [3]; greater than 100 µM in data set [4]; greater than 100 µM in data set [5]; less than 0.01 µM with CNS SNB75 cell line (setting [9]). Besides, the GI50 is less than 0.01 µM with CNS SNB75 cell line (setting [10]) and greater than 100 µM in data set [7]. Besides, in data set [6], the “selective cytotoxicity on human CNS tumor cell lines” value is “selective cytotoxicity”.

Take `Cc1nc(N)[nH]c(=O)c1N1CCN(c2ccc(S(=O)(=O)N(Cc3ccccc3)Cc3ccccc3)cc2)CC1` [Compound 11]: the GI50 is 0.7 to 16 µM in [1]; 2.1 to 37 µM in [2]; 3.68 µM in the data set with CNS U251 cell line; 4.8 to 79 µM in [3]; 1.9 to 3.5 µM in [4]; 3.1 to 27 µM in data set [5]. Also, the GI50 in [7] is 55 µM.

Regarding `Cc1nc(N)[nH]c(=O)c1N1CCN(c2ccc(S(N)(=O)=O)cc2)CC1` [Compound 12, 4-[4-(2-Amino-6-methyl-4-(3H)-oxopyrimidin-5-yl)-piperazin-1-yl]benzenesulfonamide], the GI50 in [1] was greater than 100 µM; in data set [2], greater than 100 µM; in data set [3] it was greater than 100 µM; in [4], greater than 100 µM; in data set [5] it was greater than 100 µM; in the data set on CNS SNB75 cell line (setting [9]), 0.1 µM. In addition, in data set [7], the GI50 is greater than 100 µM. The “selective cytotoxicity on human CNS tumor cell lines” value in [6] is “selective cytotoxicity”.

Turning to `Nc1nc2c(c(=O)[nH]1)CC(CCc1ccc(C(=O)N[C@@H](CCC(=O)O)C(=O)O)cc1)CN2` (stereo partly shown) [DDATHF, 5,10-dideaza-5,6,7,8-tetrahydrofolic acid], in data set [8], the “inhibition of GAR-Tfase” value is recorded as “potent inhibitor”.
